Source: patent US10829427B2, “Naphthoquinones, pro-drugs, and methods of use thereof” (The Board of Regents of the University of Texas System, priority 2015, dated 2020)

What follows are compounds tested on Mia PaCa-2 cells (assay: ATP assay (ATP depletion / cell viability) in Mia PaCa-2 cells). Details: Relative activity compare with β-lapachone in ATP depletion of Mia PaCa-2 cells.
Assay type: cell-based, human
Method: (§1) In vitro anti-cancer activity of the compound were performed using ATP Assay Kit (Abcam, ab83355) to initially screen, and further performed using 7-day DNA assay.
(§2) Cell culture: endogenous NQO1 overexpressing human MIA PaCa-2 pancreactic and A549 NSCLC cancer cells were obtained (Bey, et al., 2007; Li, et al., 2011). Cancer cells were grown in DMEM with 5% FBS and Mycoplasma free, and cultured at 37° C. in a 5% CO2 95% air humidified atmosphere.
ATP assay: Cells were seeded into each well of a 96-well plate (15000 cells/well) 18 hours ahead of experiment. After aspiration of the media from each well, 100 μl drug-contained media was added instead, and further incubated for 2 hours. After incubation, 100 μl ATP assay kit mixture was added into every well. Following further shaking for 10 minutes with light proof, the data were collected by reading luminescence integrate 1 second per well.

Row | SMILES | IC50/IC50 (β-lapachone/Compoud)
1 | CCCCOC1=CC(=O)C(=O)c2c(NC(C)=O)cccc21 [Compound 50, N-(5-butoxy-7,8-dioxo-7,8-dihydronaphthalen-1-yl)acetamide] | 1~2
2 | CC(=O)Nc1cccc2c1C(=O)C(=O)C=C2OCCN1CCOCC1 [Compound 43, N-(5-(2-morpholinoethoxy)-7,8-dioxo-7,8-dihydronaphthalen-1-yl)acetamide] | 0.3~1
3 | O=C1C=C(OC2CCCCC2)c2ccc(Cl)cc2C1=O [Compound 5, 7-chloro-4-(cyclohexyloxy)naphthalene-1,2-dione] | <0.3
4 | CC(C)OC1=CC(=O)C(=O)c2c(N)cccc21 [Compound 29, 8-amino-4-isopropoxynaphthalene-1,2-dione] | <0.3
5 | CC(C)Nc1cccc2c1C(=O)C(OC(C)C)=CC2=O [Compound 31, 2-isopropoxy-8-(isopropylamino)naphthalene-1,4-dione] | <0.3
6 | CC(=O)Nc1cccc2c1C(=O)C(=O)C=C2OC1CCCCC1 [Compound 25, N-(5-(cyclohexyloxy)-7,8-dioxo-7,8-dihydronaphthalen-1-yl)acetamide] | <0.3
7 | CC(C)OC1=CC(=O)c2cccc(NS(C)(=O)=O)c2C1=O [Compound 22, N-(7-isopropoxy-5,8-dioxo-5,8-dihydronaphthalen-1-yl)methanesulfonamide] | <0.3
8 | CC(C)OC1=CC(=O)C(=O)c2cccc(OCCN3CCOCC3)c21 [Compound 42, 4-isopropoxy-5-(2-morpholinoethoxy)naphthalene-1,2-dione] | <0.3
9 | CS(=O)(=O)Nc1cccc2c1C(=O)C(=O)C=C2OC1CCCCC1 [Compound 26, N-(5-(cyclohexyloxy)-7,8-dioxo-7,8-dihydronaphthalen-1-yl)methanesulfonamide] | <0.3
10 | CCCCCCCCOC1=CC(=O)C(=O)c2c(NS(C)(=O)=O)cccc21 [Compound 55, N-(5-(octyloxy)-7,8-dioxo-7,8-dihydronaphthalen-1-yl)methanesulfonamide] | 1~2
11 | O=C1C=C(OC2CCCCC2)c2cccc(Cl)c2C1=O [Compound 16, 8-chloro-4-(cyclohexyloxy)naphthalene-1,2-dione] | 0.3~1
12 | CC(C)OC1=CC(=O)C(=O)c2cc3c(cc21)OCO3 [Compound 9, 8-isopropoxynaphtho[2,3-d][1,3]dioxole-5,6-dione] | <0.3
13 | COC1=C(C)C(=O)C(=O)c2c(NC(C)=O)cccc21 [Compound 47, N-(5-methoxy-6-methyl-7,8-dioxo-7,8-dihydronaphthalen-1-yl)acetamide] | <0.3
14 | CC(C)OC1=C(Cl)C(=O)C(=O)c2ccccc21 [Compound 13, 3-chloro-4-isopropoxynaphthalene-1,2-dione] | <0.3
15 | CC(C)OC1=CC(=O)C(=O)c2cccc([N+](=O)[O-])c21 [Compound 7, 4-isopropoxy-5-nitronaphthalene-1,2-dione] | 0.3~1
16 | CC(=O)Nc1cccc2c1C(=O)C(OCCN(C)C)=CC2=O [Compound 45, N-(7-(2-(dimethylamino)ethoxy)-5,8-dioxo-5,8-dihydronaphthalen-1-yl)acetamide] | 1~2
17 | CC(C)OC1=CC(=O)C(=O)c2c(NC(=O)C(F)(F)F)cccc21 [Compound 19, 2,2,2-trifluoro-N-(5-isopropoxy-7,8-dioxo-7,8-dihydronaphthalen-1-yl)acetamide] | <0.3
18 | CC(C)OC1=CC(=O)C(=O)c2cc(Cl)c(Cl)cc21 [Compound 37, 6,7-dichloro-4-isopropoxynaphthalene-1,2-dione] | 1~2
19 | Cc1ccc(S(=O)(=O)Nc2cccc3c2C(=O)C(=O)C=C3OC(C)C)cc1 [Compound 17, N-(5-isopropoxy-7,8-dioxo-7,8-dihydronaphthalen-1-yl)-4-methylbenzenesulfonamide] | <0.3
20 | CC(C)OC1=CC(=O)c2cccc(NC(=O)C(F)(F)F)c2C1=O [Compound 20, 2,2,2-trifluoro-N-(7-isopropoxy-5,8-dioxo-5,8-dihydronaphthalen-1-yl)acetamide] | <0.3
21 | COCCOCCOCCOCCOC1=CC(=O)C(=O)c2c(NS(C)(=O)=O)cccc21 [Compound 56, N-(5-(2,5,8,11-tetraoxatridecan-13-yloxy)-7,8-dioxo-7,8-dihydronaphthalen-1-yl)methanesulfonamide] | <0.3
22 | CC(C)OC1=CC(=O)C(=O)c2cccc(Br)c21 [Compound 32, 5-bromo-4-isopropoxynaphthalene-1,2-dione] | <0.3

Row | SMILES | IC50/IC50 (β-lapachone/Compoud)
23 | CC(C)OC1=C(Br)C(=O)C(=O)c2ccccc21 [Compound 11, 3-bromo-4-isopropoxynaphthalene-1,2-dione] | <0.3
24 | CC(C)OC1=CC(=O)C(=O)c2cc(Br)ccc21 [Compound 1, 7-bromo-4-isopropoxynaphthalene-1,2-dione] | <0.3
25 | COc1cc2c(cc1OC)C(OC(C)C)=CC(=O)C2=O [Compound 8, 4-isopropoxy-6,7-dimethoxynaphthalene-1,2-dione] | <0.3
26 | COC1=CC(=O)C(=O)c2c(NC(C)=O)cccc21 [Compound 46, N-(5-methoxy-7,8-dioxo-7,8-dihydronaphthalen-1-yl)acetamide] | 1~3
27 | CC(C)OC1=CC(=O)C(=O)c2cccc(Cl)c21 [Compound 6, 5-chloro-4-isopropoxynaphthalene-1,2-dione] | <0.3
28 | O=C1C=C(OC2CCCCC2)c2cccc(O)c2C1=O [Compound 39, 4-(cyclohexyloxy)-8-hydroxynaphthalene-1,2-dione] | 0.3~1
29 | CCC(CC)OC1=CC(=O)C(=O)c2c(NC(C)=O)cccc21 [Compound 52, N-(7,8-dioxo-5-(pentan-3-yloxy)-7,8-dihydronaphthalen-1-yl)acetamide] | <0.3
30 | CC(C)OC1=CC(=O)C(=O)c2cc(F)ccc21 [Compound 3, 7-fluoro-4-isopropoxynaphthalene-1,2-dione] | <0.3
31 | CC(C)OC1=CC(=O)C(=O)c2c(NS(=O)(=O)C(F)(F)F)cccc21 [Compound 23, 1,1,1-trifluoro-N-(5-isopropoxy-7,8-dioxo-7,8-dihydronaphthalen-1-yl)methanesulfonamide] | <0.3
32 | O=C1C=C(OC2CCCCC2)c2cc(Cl)ccc2C1=O [Compound 35, 6-chloro-4-(cyclohexyloxy)naphthalene-1,2-dione] | 0.3~1
33 | CC(C)OC1=CC(=O)C(=O)c2cccc(O)c21 [Compound 40, 5-hydroxy-4-isopropoxynaphthalene-1,2-dione] | <0.3
34 | CC(=O)Nc1cccc2c1C(=O)C(OCCN1CCOCC1)=CC2=O [Compound 44, N-(7-(2-morpholinoethoxy)-5,8-dioxo-5,8-dihydronaphthalen-1-yl)acetamide] | 0.3~1
35 | CC(C)OC1=CC(=O)C(=O)c2ccc(NC(=O)OC(C)(C)C)cc21 [Compound 33, tert-butyl (8-isopropoxy-5,6-dioxo-5,6-dihydronaphthalen-2-yl)carbamate] | <0.3
36 | Cc1cc(C)c2c(c1)C(=O)C(=O)C=C2OC(C)C [Compound 10, 4-isopropoxy-5,7-dimethylnaphthalene-1,2-dione] | <0.3
37 | CC(=O)Nc1cccc2c1C(=O)C(=O)C=C2OCCCO [Compound 27, N-(5-(3-hydroxypropoxy)-7,8-dioxo-7,8-dihydronaphthalen-1-yl)acetamide] | <0.3
38 | CCCCCCOC1=CC(=O)C(=O)c2c(NS(C)(=O)=O)cccc21 [Compound 54, N-(5-(hexyloxy)-7,8-dioxo-7,8-dihydronaphthalen-1-yl)methanesulfonamide] | <0.3
39 | O=C1C=C(OC2CCCCC2)c2ccc(Br)cc2C1=O [Compound 2, 7-bromo-4-(cyclohexyloxy)naphthalene-1,2-dione] | <0.3
40 | CCC(CC)OC1=CC(=O)C(=O)c2c(NS(C)(=O)=O)cccc21 [Compound 53, N-(7,8-dioxo-5-(pentan-3-yloxy)-7,8-dihydronaphthalen-1-yl)methanesulfonamide] | <0.3
41 | CC(C)OC1=CC(=O)C(=O)c2ccc(Br)cc21 [Compound 36, 6-bromo-4-isopropoxynaphthalene-1,2-dione] | <0.3
42 | CC(C)OC1=CC(=O)C(=O)c2c(Cl)cccc21 [Compound 14, 8-chloro-4-isopropoxynaphthalene-1,2-dione] | 0.3~1
43 | CCCCCCCCOC1=CC(=O)C(=O)c2c(NC(C)=O)cccc21 [Compound 51, N-(5-(octyloxy)-7,8-dioxo-7,8-dihydronaphthalen-1-yl)acetamide] | <0.3
44 | CC(C)OC1=C(Br)C(=O)c2ccccc2C1=O [Compound 12, 2-bromo-3-isopropoxynaphthalene-1,4-dione] | <0.3

These compounds were tested on A549 cells (assay: Cell viability in A549 cells (7-day DNA assay)). Details: relative to β-lapachone.
Assay type: cell-based, human
Method: as §1, §2
DNA assay: Cells were seeded into each well of a 48-well plate (10000 cells/well) 24 hours ahead of experiment. After aspiration of the media from each well, 500 μl drug-contained media was added instead, and further incubated for 2 hours. Drugs were then removed, control growth medium was added, and cells were allowed to grow for an additional 7 days. Drugs were added to medium at a 1:1000 dilution immediately before administration to cells. DNA content (a measure of cell growth) was determined by fluoresence of the DNA dye Hoescht 33258 (Sigma), and read in a Cytofluor fluoresence plate reader. Data were expressed as relative growth with 6 repetitions.

Row | SMILES | IC50/IC50 (β-lapachone/Compoud)
45 | CC(C)OC1=CC(=O)C(=O)c2cc(Cl)c(Cl)cc21 [Compound 37, 6,7-dichloro-4-isopropoxynaphthalene-1,2-dione] | 0.3~1
